# According to patent publication US20240425524A1, “SPIROTRICYCLE RIPK1 INHIBITORS AND METHODS OF USES THEREOF” (Merck Sharp & Dohme LLC, priority 2021, published 2024):
# pEC50: −log10 of the molar value.
# Biological target: RIPK1 (Homo sapiens (Human), UniProt Q13546)
# Assay: RIPK1-ADP-Glo Enzymatic Assay
# Type: biochemical
# Conditions: recombinant GST-RIPK1 kinase domain (residues 1-327), 25 nM, ten-point titration, 30 minutes pre-incubation
# Procedure, shortened: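 GST-RIPK1 kinase domain (residues 1-327, Sf21-expressed; 25 nM final) was pre-incubated 30 min at ambient temperature with compound (10-point 1:3 series from 100000 nM, 1% DMSO) in HEPES pH 7.3 buffer with 20 mM MgCl2. The reaction was started with 900 μM ATP (addition solution) and 3 μM dephosphorylated MBP and ran 150 min. Read-out was ADP-Glo luminescence, with EC50 from a four-parameter fit.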
# Sequence of RIPK1 (Q13546 1-327): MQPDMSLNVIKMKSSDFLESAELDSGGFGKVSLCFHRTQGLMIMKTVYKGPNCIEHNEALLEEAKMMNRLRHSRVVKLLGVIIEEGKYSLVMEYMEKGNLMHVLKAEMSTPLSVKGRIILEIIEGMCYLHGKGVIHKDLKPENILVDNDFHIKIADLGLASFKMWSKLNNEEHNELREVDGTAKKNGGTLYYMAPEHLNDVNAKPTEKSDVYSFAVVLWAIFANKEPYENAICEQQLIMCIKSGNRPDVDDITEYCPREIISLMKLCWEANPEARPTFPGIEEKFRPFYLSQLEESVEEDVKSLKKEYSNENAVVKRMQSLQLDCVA
row,pEC50,Structure (SMILES)
1,7.19,"N#Cc1ccc(N2CCC3(CC2)CN2CC[C@@H](c4cc(F)cc(F)c4)N2C3=O)nc1 [Example 1.50, (S)-6-(7′-(3,5-difluorophenyl)-1′-oxodihydro-1′H,3′H,5′H-spiro[piperidine-4,2′-pyrazolo[1,2-a]pyrazol]-1-yl)nicotinonitrile]"
2,7.43,"O=C1N2[C@H](c3cc(F)cc(F)c3)CCN2CC12CCN(c1cc(F)ncc1F)CC2 [Example 1.9, (7′S)-7′-(3,5-difluorophenyl)-1-(2,5-difluoropyridin-4-yl)dihydro-1′H,3′H,5′H-spiro[piperidine-4,2′-pyrazolo[1,2-a]pyrazol]-1′-one]"
3,7.10,"Cc1cnn(-c2cnc(N3CCC4(CC3)CN3CC[C@@H](c5cc(F)cc(F)c5)N3C4=O)cn2)c1 [Example 2.15, (S)-7′-(3,5-difluorophenyl)-1-(5-(4-methyl-1H-pyrazol-1-yl)pyrazin-2-yl)dihydro-l′H,3′H,5′H-spiro[piperidine-4,2′-pyrazolo[1,2-a]pyrazol]-1′-one]"
4,7.11,"O=C1N2[C@H](c3cc(F)cc(F)c3)CCN2CC12CCN(c1ccc(C(F)(F)F)cn1)CC2 [Example 1.39, (S)-7′-(3,5-difluorophenyl)-1-(5-(trifluoromethyl)pyridin-2-yl)dihydro-1′H,3′H,5′H-spiro[piperidine-4,2′-pyrazolo[1,2-a]pyrazol]-1′-one]"
5,7.48,"O=C1N2[C@H](c3cc(F)cc(F)c3)CCN2CC12CCN(c1ccnc3ccnn13)CC2 [Example 2.10, (S)-7′-(3,5-difluorophenyl)-1-(pyrazolo[1,5-a]pyrimidin-7-yl)dihydro-1′H,3′H,5′H-spiro[piperidine-4,2′-pyrazolo[1,2-a]pyrazol]-1′-one]"
6,6.30,"Cc1cc(N2CCC3(CC2)CN2CC[C@@H](c4cc(F)cc(F)c4)N2C3=O)ccn1 [Example 2.3, (S)-7′-(3,5-difluorophenyl)-1-(2-methylpyridin-4-yl)dihydro-l′H,3′H,5′H-spiro[piperidine-4,2′-pyrazolo[1,2-a]pyrazol]-1′-one]"
7,6.04,"CCCOc1ccnc(N2CCC3(CC2)CN2CC[C@@H](c4cc(F)cc(F)c4)N2C3=O)c1 [Example 2.24, (S)-7′-(3,5-difluorophenyl)-1-(4-propoxypyridin-2-yl)dihydro-l′H,3′H,5′H-spiro[piperidine-4,2′-pyrazolo[1,2-a]pyrazol]-1′-one]"
8,7.70,"Cc1c(Cl)ncnc1N1CCC2(CC1)CN1CC[C@@H](c3cc(F)cc(F)c3)N1C2=O [Example 1.38, (S)-1-(6-chloro-5-methylpyrimidin-4-yl)-7′-(3,5-difluorophenyl)dihydro-1′H,3′H,5′H-spiro[piperidine-4,2′-pyrazolo[1,2-a]pyrazol]-1′-one]"
9,7.51,"O=C(c1c(F)ccc(F)c1F)N1CCC2(CC1)CN1CC[C@@H](c3cc(F)cc(F)c3)N1C2=O [Example 4.9, (S)-7′-(3,5-difluorophenyl)-1-(2,3,6-trifluorobenzoyl) dihydro-1′H,3′H,5′H-spiro[piperidine-4,2′-pyrazolo[1,2-a]pyrazol]-l′-one]"
10,7.59,"O=C1N2[C@H](c3cc(F)cc(F)c3)CCN2CC12CCN(c1ncc(F)c(C(F)F)n1)CC2 [Example 1.57, (S)-1-(4-(difluoromethyl)-5-fluoropyrimidin-2-yl)-7′-(3,5-difluorophenyl)dihydro-1′H,3′H,5′H-spiro[piperidine-4,2′-pyrazolo[1,2-a]pyrazol]-1′-one]"
11,6.53,"CC(C)c1nccc(N2CCC3(CC2)CN2CC[C@@H](c4cc(F)cc(F)c4)N2C3=O)n1 [Example 1.49, (S)-7′-(3,5-difluorophenyl)-1-(2-isopropylpyrimidin-4-yl)dihydro-1′H,3′H,5′H-spiro[piperidine-4,2′-pyrazolo[1,2-a]pyrazol]-1′-one]"
12,7.07,"O=C1N2[C@H](c3cc(F)cc(F)c3)CCN2CC12CCN(c1cnc(Cl)cn1)CC2 [Example 1.42, (S)-1-(5-chloropyrazin-2-yl)-7′-(3,5-difluorophenyl)dihydro-1′H,3′H,5′H-spiro[piperidine-4,2′-pyrazolo[1,2-a]pyrazol]-1′-one]"
13,6.82,"O=C1N2[C@H](c3cc(F)cc(F)c3)CCN2CC12CCN(c1cnc(-c3ccc(Cl)cc3)cn1)CC2 [Example 2.18, (S)-1-(5-(4-chlorophenyl)pyrazin-2-y1)-7′-(3,5-difluorophenyl)dihydro-1′H,3′H,5′H-spiro[piperidine-4,2′-pyrazolo[1,2-a]pyrazol]-1′-one]"
14,6.72,"N#Cc1c(F)c(F)nc(N2CCC3(CC2)CN2CC[C@@H](c4cc(F)cc(F)c4)N2C3=O)c1F [Example 1.51, (S)-2-(7′-(3,5-difluorophenyl)-1′-oxodihydro-1′H,3′H,5′H-spiro [piperidine-4,2′-pyrazolo[1,2-a]pyrazol]-1-yl)-3,5,6-trifluoroisonicotinonitrile]"
15,7.64,"Cc1cc(F)c(C(=O)N2CCC3(CC2)CN2CC[C@@H](c4cc(F)cc(F)c4)N2C3=O)cc1F [Example 4.26, (S)-1-(2,5-difluoro-4-methylbenzoyl)-7′-(3,5-difluorophenyl) dihydro-1′H,3′H,5′H-spiro[piperidine-4,2′-pyrazolo[1,2-a]pyrazol]-l′-one]"
16,7.60,"CC(=O)c1cccc(N2CCC3(CC2)CN2CC[C@@H](c4cc(F)cc(F)c4)N2C3=O)n1 [Example 1.64, (S)-1-(6-acetylpyridin-2-yl)-7′-(3,5-difluorophenyl)dihydro-1′H,3′H,5′H-spiro[piperidine-4,2′-pyrazolo[1,2-a]pyrazol]-1′-one]"
17,7.52,"CSc1cnc(N2CCC3(CC2)CN2CC[C@@H](c4cc(F)cc(F)c4)N2C3=O)cn1 [Example 2.20, (S)-7′-(3,5-difluorophenyl)-1-(5-(methylthio)pyrazin-2-yl)dihydro-l′H,3′H,5′H-spiro[piperidine-4,2′-pyrazolo[1,2-a]pyrazol]-1′-one]"
18,6.88,"O=C1N2[C@H](c3cc(F)cc(F)c3)CCN2CC12CCN(c1cc(-c3ccco3)ccn1)CC2 [Example 2.22, (S)-7′-(3,5-difluorophenyl)-1-(4-(furan-2-y1)pyridin-2-yl)dihydro-1′H,3′H,5′H-spiro[piperidine-4,2′-pyrazolo[1,2-a]pyrazol]-1′-one]"
19,7.41,"O=C1N2[C@H](c3cc(F)cc(F)c3)CCN2CC12CCN(c1cc(C(F)F)ncn1)CC2 [Example 1.7, (7′S)-1-[6-(difluoromethyl)pyrimidin-4-yl]-7′-(3,5-difluorophenyl)dihydro-1′H,3′H,5′H-spiro [piperidine-4,2′-pyrazolo[1,2-a]pyrazol]-1′-one]"
20,6.84,"O=C1N2[C@H](c3cc(F)cc(F)c3)CCN2CC12CCN(c1noc3ccccc13)CC2 [Example 2.6, (S)-1-(benzo[d]isoxazol-3-yl)-7′-(3,5-difluorophenyl)dihydro-1′H,3′H,5′H-spiro[piperidine-4,2′-pyrazolo[1,2-a]pyrazol]-1′-one]"
21,6.82,"O=C1N2[C@H](c3cc(F)cc(F)c3)CCN2CC12CCN(c1cc(O)ncn1)CC2 [Example 1.2, (7′S)-7′-(3,5-difluorophenyl)-1-(6-hydroxypyrimidin-4-yl)dihydro-1′H,3′H,5′H-spiro[piperidine-4,2′-pyrazolo[1,2-a]pyrazol]-1′-one]"
22,6.23,"Cn1ccc(C(=O)N2CCC3(CC2)CN2CC[C@@H](c4cc(F)cc(F)c4)N2C3=O)n1 [Example 4.6, (S)-7′-(3,5-difluorophenyl)-1-(1-methyl-1H-pyrazole-3-carbonyl)dihydro-1′H,3′H,5′H-spiro[piperidine-4,2′-pyrazolo[1,2-a]pyrazol]-l′-one]"
23,7.52,"COc1nccc(N2CCC3(CC2)CN2CC[C@@H](c4cc(F)cc(F)c4)N2C3=O)n1 [Example 1.84, (S)-7′-(3,5-difluorophenyl)-1-(2-methoxypyrimidin-4-yl)dihydro-1′H,3′H,5′H-spiro[piperidine-4,2′-pyrazolo[1,2-a]pyrazol]-1′-one]"
24,7.66,"COc1nc(N2CCC3(CC2)CN2CC[C@@H](c4cc(F)cc(F)c4)N2C3=O)ncc1F [Example 1.85, (S)-7′-(3,5-difluorophenyl)-1-(5-fluoro-4-methoxypyrimidin-2-yl)dihydro-1′H,3′H,5′H-spiro[piperidine-4,2′-pyrazolo[1,2-a]pyrazol]-1′-one]"
25,7.37,"Cc1nc(N2CCC3(CC2)CN2CC[C@@H](c4cc(F)cc(F)c4)N2C3=O)ccc1F [Example 11.2, (S)-7′-(3,5-difluorophenyl)-1-(5-fluoro-6-methylpyridin-2-yl)dihydro-1′H,3′H,5′H-spiro[piperidine-4,2′-pyrazolo[1,2-a]pyrazol]-l′-one]"
26,6.48,"O=C1N2[C@H](c3cc(F)cc(F)c3)CCN2CC12CCN(c1nnc(-c3ccccc3)o1)CC2 [Example 1.82, (S)-7′-(3,5-difluorophenyl)-1-(5-phenyl-1,3,4-oxadiazol-2-yl)dihydro-1′H,3′H,5′H-spiro[piperidine-4,2′-pyrazolo[1,2-a]pyrazol]-1′-one]"
27,6.47,"O=C1N2[C@H](c3cc(F)cc(F)c3)CCN2CC12CCN(c1cncc(F)c1)CC2 [Example 10.2, (S)-7′-(3,5-difluorophenyl)-1-(5-fluoropyridin-3-yl)dihydro-1′H,3′H,5′H-spiro[piperidine-4,2′-pyrazolo[1,2-a]pyrazol]-l′-one]"

row,Structure (SMILES),pEC50
1,"O=C1N2[C@H](c3cc(F)cc(F)c3)CCN2CC12CCN(c1cccc3ccnn13)CC2 [Example 8.2, (S)-7′-(3,5-difluorophenyl)-1-(pyrazolo[1,5-α]pyridin-7-yl) dihydro-1′H,3′H,5′H-spiro [piperidine-4,2′-pyrazolo[1,2-α]pyrazol]-1′-one]",7.47
2,"O=C1N2[C@H](c3cc(F)cc(F)c3)CCN2CC12CCN(Cc1ccc3ccccc3n1)CC2 [Example 6.1, (S)-7′-(3,5-difluorophenyl)-1-(quinolin-2-ylmethyl) dihydro-1′H,3′H,5′H-spiro [piperidine-4,2′-pyrazolo[1,2-α]pyrazol]-1′-one]",6.15
